In the data set the test system is MCF-7 cells. Put plainly: Quantitative uptake of FAM-conjugated peptide (flow cytometry). It counts as in vitro ADME. Particulars: FAM-conjugated peptides 1, 5, 10 µM; MCF-7, serum free media, 6 h, 37°C; FACS; duplicate. As to the method: Carboxyfluorescein (FAM)-conjugated peptide was added onto MCF-7 cells with ∼80% confluence in serum free media. Cells were then incubated at 37°C humidified incubator (5% CO2) for 6 h. Cells were washed twice with ice cold PBS containing 1mg/ml heparin, followed by one wash with trypan blue and two washes with ice cold PBS. Cells were trypsinised, followed by centrifugation at 700 g for 5 min at 4°C. Cell pellet was resuspended in ice cold PBS and FACS analysis was done in BD Accuri instrument. 10000 counts per sample was analyzed using BD Accuri C6 software.
As the peptide contains three proline residues, we reasoned that the peptide may have cell penetrating properties. To check the cell penetrating property, we FAM conjugated the peptides and monitored their uptake by flow cytometry.
For orientation: In flow cytometry, cells or beads pass a laser one at a time.

Peptide text beside a SMILES is read from it.

With `CC(C)C[C@H](NC(=O)[C@H](C)N)C(=O)N[C@@H](Cc1c[nH]c2ccccc12)C(=O)N1CCC[C@H]1C(=O)N1CCC[C@H]1C(=O)N[C@@H](CC(N)=O)C(=O)N[C@@H](CC(C)C)C(=O)N[C@@H](Cc1c[nH]cn1)C(=O)N[C@@H](C)C(=O)N[C@@H](Cc1c[nH]c2ccccc12)C(=O)N[C@H](C(=O)N1CCC[C@H]1C(=O)O)C(C)C` [wild-type peptide] (H-ALWPPNLHAWVP-OH), the “cell penetrating potential (uptake)” value was “clearly indicated cell penetrating potential”. The value for LPPAPWNWAHVL [scrambled mutant] was “clearly indicated cell penetrating potential”; that for PVWAHLNPPWLA [reverse mutant] was “clearly indicated cell penetrating potential”.
